In PubChem BioAssay AID248 (DTP/NCI, 2004):
Where “and” joins values, the source holds several entries; their conditions need not be identical. Equal entries are not always repeated. Inconclusive results and toxic doses are left out. Cut-off read from the data, not from the text of the source: active = T/C of 150% or more; inactive = T/C below 125%.

Test system: L1210 leukemia ip in BDF1 mice, survival T/C
Assay: NCI In Vivo Anticancer Drug Screen. Data for tumor model L1210 Leukemia (intraperitoneal) in B6D2F1 (BDF1) mice
Settings: endpoint: mean survival time, higher = longer survival
How it was run: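 In this screen, tumor-bearing mice given compound are compared to those given vehicle, and their survival values are reported as a treated-to-control quotient.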

[1] = dose: 100.0 mg/kg/injection, schedule: Q04DX002 (ip), vehicle: saline
[2] = dose: 200.0 mg/kg/injection, schedule: Q04DX002 (ip), vehicle: saline
[3] = dose: 400.0 mg/kg/injection, schedule: Q04DX002 (ip), vehicle: saline
[4] = dose: 400.0 mg/kg/injection, schedule: Q01DX001 (ip), vehicle: saline
[5] = dose: 100.0 mg/kg/injection, schedule: Q01DX009 (ip), vehicle: saline
[6] = dose: 100.0 mg/kg/injection, schedule: Q04DX003 (ip), vehicle: Klucel (hydroxypropylcellulose) (HPC)
[7] = dose: 200.0 mg/kg/injection, schedule: Q01DX009 (ip), vehicle: saline
[8] = dose: 200.0 mg/kg/injection, schedule: Q04DX003 (ip), vehicle: Klucel (hydroxypropylcellulose) (HPC)
[9] = dose: 400.0 mg/kg/injection, schedule: Q01DX009 (ip), vehicle: saline
[10] = dose: 400.0 mg/kg/injection, schedule: Q04DX003 (ip), vehicle: Klucel (hydroxypropylcellulose) (HPC)
[11] = dose: 100.0 mg/kg/injection, schedule: Q04DX003 (ip), vehicle: saline with Tween-80
[12] = dose: 100.0 mg/kg/injection, schedule: Q01DX005 (ip), vehicle: saline
[13] = dose: 200.0 mg/kg/injection, schedule: Q01DX005 (ip), vehicle: saline
[14] = dose: 50.0 mg/kg/injection, schedule: Q04DX002 (ip), vehicle: saline with Tween-80
[15] = dose: 100.0 mg/kg/injection, schedule: Q04DX002 (ip), vehicle: saline with Tween-80
[16] = dose: 25.0 mg/kg/injection, schedule: Q01DX009 (ip), vehicle: Klucel (hydroxypropylcellulose) (HPC)
[17] = dose: 50.0 mg/kg/injection, schedule: Q01DX009 (ip), vehicle: Klucel (hydroxypropylcellulose) (HPC)
[18] = dose: 100.0 mg/kg/injection, schedule: Q01DX009 (ip), vehicle: Klucel (hydroxypropylcellulose) (HPC)
[19] = dose: 200.0 mg/kg/injection, schedule: Q01DX001 (ip), vehicle: Klucel (hydroxypropylcellulose) (HPC)

Measured: T/C

O=C(Cc1ccccc1)Nc1cc(C(F)(F)F)ccc1Cl
inactive: [1] 100 % of control | [2] 93 % of control | [3] 100 % of control

CN=C(N)NN
inactive: dose: 30.0 mg/kg/injection, schedule: Q01DX Z (ip), vehicle: methylcellulose (MC) 102 % of control | dose: 60.0 mg/kg/injection, schedule: Q01DX Z (ip), vehicle: methylcellulose (MC) 97 % of control | dose: 120.0 mg/kg/injection, schedule: Q01DX Z (ip), vehicle: methylcellulose (MC) 105 % of control | dose: 175.0 mg/kg/injection, schedule: Q01DX001 (ip), vehicle: saline 105 % of control | dose: 240.0 mg/kg/injection, schedule: Q01DX Z (ip), vehicle: methylcellulose (MC) 98 % of control | dose: 265.0 mg/kg/injection, schedule: Q01DX001 (ip), vehicle: saline 104 % of control | dose: 375.0 mg/kg/injection, schedule: Q01DX Z (ip), vehicle: methylcellulose (MC) 111 % of control | [4] 98 % of control | dose: 480.0 mg/kg/injection, schedule: Q01DX Z (ip), vehicle: methylcellulose (MC) 107 % of control | dose: 600.0 mg/kg/injection, schedule: Q01DX001 (ip), vehicle: saline 104 % of control

CCC1C(=O)NC(=O)C1(C)c1ccccc1 (centres undefined)
inactive: dose: 25.0 mg/kg/injection, schedule: Q01DX009 (ip), vehicle: saline 115 % of control | dose: 25.0 mg/kg/injection, schedule: Q04DX003 (ip), vehicle: Klucel (hydroxypropylcellulose) (HPC) 120 % of control | dose: 50.0 mg/kg/injection, schedule: Q01DX009 (ip), vehicle: saline 103 % of control | dose: 50.0 mg/kg/injection, schedule: Q04DX003 (ip), vehicle: Klucel (hydroxypropylcellulose) (HPC) 101 % of control | [5] 98 % of control | [6] 101 % of control | [7] 110 % of control | [8] 93 % of control | [9] 86 % of control | [10] 104 % of control

C/C=C/C(=O)Nc1cc(C(F)(F)F)ccc1Cl
inactive: dose: 25.0 mg/kg/injection, schedule: Q01DX009 (ip), vehicle: saline with Tween-80 93 % of control and 97 % of control | dose: 50.0 mg/kg/injection, schedule: Q01DX009 (ip), vehicle: saline with Tween-80 97 % of control and 89 % of control | dose: 50.0 mg/kg/injection, schedule: Q04DX003 (ip), vehicle: saline with Tween-80 98 % of control | dose: 100.0 mg/kg/injection, schedule: Q01DX001 (ip), vehicle: saline with Tween-80 98 % of control | dose: 100.0 mg/kg/injection, schedule: Q01DX009 (ip), vehicle: saline with Tween-80 96 % of control and 90 % of control | [5] 94 % of control and 102 % of control | [1] 102 % of control and 109 % of control | [11] 98 % of control and 89 % of control | dose: 200.0 mg/kg/injection, schedule: Q01DX001 (ip), vehicle: saline with Tween-80 88 % of control | [7] 88 % of control | [2] 94 % of control and 103 % of control | dose: 200.0 mg/kg/injection, schedule: Q04DX003 (ip), vehicle: saline with Tween-80 109 % of control | [3] 95 % of control | dose: 400.0 mg/kg/injection, schedule: Q04DX003 (ip), vehicle: saline with Tween-80 95 % of control

CSC1C(O)C(CO)OC1n1cnc2c(N)ncnc21 (centres undefined)
inactive: [12] 100 % of control | [13] 106 % of control

COc1cccc2c1C(=O)CC2
inactive: dose: 25.0 mg/kg/injection, schedule: Q01DX009 (ip), vehicle: acetone 101 % of control | dose: 50.0 mg/kg/injection, schedule: Q01DX009 (ip), vehicle: acetone 106 % of control | dose: 100.0 mg/kg/injection, schedule: Q01DX009 (ip), vehicle: acetone 103 % of control | [11] 87 % of control

CCCCOP(=O)(OCCCC)N(C)c1ccccc1
inactive: dose: 25.0 mg/kg/injection, schedule: Q04DX002 (ip), vehicle: saline with Tween-80 89 % of control | [14] 95 % of control | [15] 92 % of control and 93 % of control

O=C1c2cccc3c(Br)ccc(c23)C(=O)N1CCCN1CCOCC1
inactive: [16] 97 % of control | [17] 90 % of control | [18] 102 % of control

Nc1nc(SCc2ccc([N+](=O)[O-])cc2)c2nc(SCc3ccc([N+](=O)[O-])cc3)n(C3OC(CO)C(O)C3O)c2n1 (centres undefined)
inactive: dose: 50.0 mg/kg/injection, schedule: Q01DX005 (ip), vehicle: saline 102 % of control | [12] 118 % of control | [13] 115 % of control

ClCCN(CCCl)CCCNCCCNc1c2ccccc2nc2c1ccc1ccccc12
inactive: dose: 0.08 mg/kg/injection, schedule: Q01DX Z (ip), vehicle: saline 102 % of control | dose: 0.16 mg/kg/injection, schedule: Q01DX Z (ip), vehicle: saline 106 % of control | dose: 0.31 mg/kg/injection, schedule: Q01DX Z (ip), vehicle: saline 110 % of control | dose: 0.62 mg/kg/injection, schedule: Q01DX Z (ip), vehicle: saline 112 % of control | dose: 1.25 mg/kg/injection, schedule: Q01DX Z (ip), vehicle: saline 102 % of control | dose: 2.5 mg/kg/injection, schedule: Q01DX Z (ip), vehicle: saline 97 % of control

Cc1ccc(Nc2nc(N)nc(N)c2N=O)cc1C
inactive: dose: 100.0 mg/kg/injection, schedule: Q01DX Z (ip), vehicle: methylcellulose (MC) 116 % of control | [19] 106 % of control | dose: 200.0 mg/kg/injection, schedule: Q01DX Z (ip), vehicle: methylcellulose (MC) 98 % of control

O=c1c2ncn(C3OC(CO)C(O)C3O)c2nc2nc[nH]n12 (centres undefined)
inactive: [12] 93 % of control | [13] 98 % of control

COC(=O)c1ccccc1NC(=S)NC(=O)c1ccc(OC)cc1
inactive: [18] 93 % of control | [6] 91 % of control | dose: 200.0 mg/kg/injection, schedule: Q01DX009 (ip), vehicle: Klucel (hydroxypropylcellulose) (HPC) 98 % of control | [8] 104 % of control | dose: 400.0 mg/kg/injection, schedule: Q01DX009 (ip), vehicle: Klucel (hydroxypropylcellulose) (HPC) 95 % of control | [10] 96 % of control

C=CC(C)(O)CCC1C(=C)C(O)CC2C(C)(C)CCCC12C (centres undefined)
inactive: [5] 100 % of control | dose: 100.0 mg/kg/injection, schedule: Q04DX003 (ip), vehicle: saline 105 % of control | [7] 100 % of control | dose: 200.0 mg/kg/injection, schedule: Q04DX003 (ip), vehicle: saline 95 % of control | [9] 94 % of control | dose: 400.0 mg/kg/injection, schedule: Q04DX003 (ip), vehicle: saline 90 % of control

Cc1ccc(S(=O)(=O)Nc2cc(C)ccc2C)cc1
inactive: dose: 50.0 mg/kg/injection, schedule: Q01DX001 (ip), vehicle: carboxymethylcellulose (CMC) 93 % of control | dose: 100.0 mg/kg/injection, schedule: Q01DX001 (ip), vehicle: carboxymethylcellulose (CMC) 95 % of control | dose: 200.0 mg/kg/injection, schedule: Q01DX001 (ip), vehicle: carboxymethylcellulose (CMC) 104 % of control | dose: 400.0 mg/kg/injection, schedule: Q01DX001 (ip), vehicle: carboxymethylcellulose (CMC) 88 % of control

c1ccc(-c2nc3nncn3nc2-c2ccccc2)cc1
inactive: dose: 100.0 mg/kg/injection, schedule: Q01DX001 (ip), vehicle: saline 94 % of control | dose: 200.0 mg/kg/injection, schedule: Q01DX001 (ip), vehicle: saline 99 % of control | [4] 98 % of control

COc1ccc(C)cc1NC(=S)NC(=O)C(C)Oc1ccccc1 (centres undefined)
inactive: [16] 95 % of control | [17] 93 % of control | [18] 101 % of control and 91 % of control | [6] 97 % of control | [8] 103 % of control | [10] 97 % of control

O=C1NC(c2ccc(Cl)cc2)N2C(=O)NC(c3ccc(Cl)cc3)N12 (centres undefined)
inactive: [14] 97 % of control | [15] 94 % of control | dose: 200.0 mg/kg/injection, schedule: Q04DX002 (ip), vehicle: saline with Tween-80 97 % of control

O=[N+]([O-])c1ccc(C2=NC(c3ccccc3)CO2)cc1 (centres undefined)
inactive: dose: 50.0 mg/kg/injection, schedule: Q01DX001 (ip), vehicle: Klucel (hydroxypropylcellulose) (HPC) 96 % of control | dose: 100.0 mg/kg/injection, schedule: Q01DX001 (ip), vehicle: Klucel (hydroxypropylcellulose) (HPC) 112 % of control | [19] 94 % of control
